Tests used:
R28 cells [1] = test system: R28 cells
[2] = test system: ischemic retinas of the OIR mouse model; conditions: refs [16, 18]; cited from earlier work
[3] = test system: preretinal NV in OIR mouse model; experiment: Quantification of preretinal NV (H&E sections), OIR mouse model; format: in vivo, C57BL/6J mice; conditions: OIR mice, double intravitreal injection YC-1 100 μM, P17, n=8; DMSO 61
Protocol: Retinal NV was induced in newborn mice as described previously. Briefly, P7 mice were exposed with their nursing mother, for 5 days [between P7 and P12] to hyperoxic conditions, by incubating them in an airtight chamber [PROOX 110 chamber O2 controller; Biospherix Ltd., Redfield, N.Y.] ventilated by a mixture of O2 and air to a final oxygen fraction of 75±2%. These incubation conditions induced vaso-obliteration and subsequent cessation of vascular development in the capillary beds of the central retina. At P12, the mice were allowed to recover in normal room air conditions and maintained for another 5 days [till P17], the day in which peak disease occurs. A condition of relative hypoxia resulted between P12 and P17, and extensive retinal NV developed in 100% of the mice. […]
Quantification of preretinal NV on P17 mice was performed as previously described. Briefly, 6-μm-thick serial sections were stained with hematoxylin and Eosin (H&E), then examined and scored in masked fashion for the presence of all nuclei extending beyond the ILM into the vitreous from the retina, by using light microscopy (Zeiss Axiovert 135, Thornwood, N.Y.). Efficacy of treatment was calculated as the percentage of the average number of nuclei/section in the eyes of YC-1-treated mice vs. DMSO-treated retinas. A minimum of 10 sections at least 40 μm apart were evaluated and counted per eye and then averaged. […]

R28 cells [4] = experiment: Western blot, R28; format: cell-based, rat; conditions: R28, hypoxia 48 hours, YC-1 25-100 μM
Protocol: Cells were placed in airtight chambers [BioSpherix, Redfield, N.Y.] and the O2 tension was maintained at 1.2% by using Pro-Ox Model 110 O2 regulator [BioSpherix, Redfield, N.Y.]. The chamber was purged with a gas mixture of 5.32% CO2, and 93.48% N2. […] Müller cells [rMC-1] and […] cells were seeded overnight in 6-well plates [10^5 cells/well]. Cells were treated with either YC-1 [25-100 μM] or DMSO [0.2% v/v] for 48 hours under normoxic or hypoxic environments. Reactions were terminated by addition of lysis buffer [Cell Signaling, Beverly, Mass.]. Protein content of the cell lysates was determined according to the Bradford method [Bio-Rad, Hercules, Calif.]. Aliquots [40 μg] of whole-cell lysates were separated on 7.5% SDS-PAGE, and electro-transferred onto polyvinylidene membranes [Amersham Pharmacia Biotech, Little Chalfont]. After blocking with 5% nonfat dry milk in TBS-T, the blots were incubated overnight with anti-iNOS [at 1:100] and anti-β-actin [internal control] antibodies. Then blots were washed 3×10 min washes in PBS/tween and subsequently incubated with peroxidase-conjugated anti-mouse IgG secondary antibody at 1:3000. The signals were obtained by enhanced chemiluminescence [Amersham Biosciences], and visualized by exposure to X-ray film. Upon completion of chemiluminescence, equal lane loading was checked by Ponceau S Solution [Sigma, St. Louis, Mo.]. X-ray films were scanned with a computer-assisted densitometer [model G-710; Bio-Rad] to quantify band optical density [Quantity One software; Bio-Rad].

[5] = test system: human retinal microvascular EC; conditions: refs [16, 17, 18]; cited from earlier work
R28 cells [6] = experiment: Real time RT-PCR analysis, in vitro, R28; format: cell-based, rat
Protocol: A transformed Müller cell line [rMC-1] were grown in cell cultures in DMEM supplemented with 15% FBS, as well as with a fungicide mixture and 0.5% gentamicin in a humidified atmosphere of 5% CO2/95% air. Medium was changed every 2-3 days, and cells were grown to confluence in a 150-mm dish. Cells were split into 60-mm dishes and were used in the experiments when confluent. […] cells are immortalized rat retinal neurosensory/neuoroglial progenitor cells, by transfection with Adenovirus 12S E1A into the neonatal retinal tissue. […] cells express genes characteristic of neurons, as well as functional neuronal properties. […] cells were cultured in DMEM/F12 medium in a 1:1 mixture, supplemented with 5% FBS, 1.5 mM L-glutamine, 7.5 mM sodium pyruvate, 0.1 mM nonessential amino acids, 1×MEM, 0.37% sodium bicarbonate and 10 μg/ml gentamicin. Cells were incubated at 37° C. in the presence of 5% CO2. Human retinal microvascular endothelial cells [[…]][40,000 cells/well] were seeded in a 96-well plate and allowed to adhere overnight and incubated at 37° C. in normoxia. Cells were then cultured in 150 μl of CS-C medium supplemented with 10% FBS and in the presence of 1-100 μM YC-1 or DMSO [0.2%]. Cells were placed in airtight chambers [BioSpherix, Redfield, N.Y.] and the O2 tension was maintained at 1.2% by using Pro-Ox Model 110 O2 regulator [BioSpherix, Redfield, N.Y.]. The chamber was purged with a gas mixture of 5.32% CO2, and 93.48% N2. […] We used the primers summarized in [FIG. 6C] for RT-PCR. Gene-specific molecular beacons and primers were designed to encompass the genes of interest, with beacon's annealing site to overlap with the exon-exon junctions for additional specificity [Beacon Designer 6.0, Premier Biosoft International, Palo Alto, Calif., USA]. Threshold cycle [Ct] values for the different samples were utilized for the calculation of gene expression fold change using the formula 2 to the minus power of delta delta ct. Fold changes in the HIF-1, VEGF, PDGF-B, GFAP and iNOS gene relative to the β-actin endogenous control gene were determined by the following equation: fold change=2-Δ[ΔC T], where change in threshold cycle [ΔCT]=CT [gene of interest]-CT [β-actin] and Δ [ΔCT]=ΔCT [treated]-ΔCT [untreated].

[7] = R28, hypoxia 48 hours, YC-1 25-100 μM, vs DMSO-treated hypoxic cells

## OCc1ccc(-c2nn(Cc3ccccc3)c3ccccc23)o1 [YC-1, 3-(5′-hydroxymethyl-2′-furyl)-1-benzylindazole]
R28 cells [1]
  cell viability (DAPI exclusion): comprised the majority of cells
[2]
  HIF-1 and other proangiogenic factors [VEGF, MMP-9, ET-1, and EPO]: inhibits
[3]
  average number of neovascular nuclei (pre-retinal, anterior to ILM): 11±1.8
R28 cells [4]; vs DMSO-treated hypoxic cells
  HIF-1 protein level (Western blot): inhibited the hypoxia-induced upregulation
  PDGF-B protein level (Western blot): inhibited the hypoxia-induced upregulation
  VEGF protein level (Western blot): inhibited the hypoxia-induced upregulation
  iNOS protein level (Western blot): inhibited the hypoxia-induced upregulation
R28 cells [4]; vs non-treated hypoxic cells
  GFAP protein level (Western blot): inhibited the hypoxia-induced GFAP protein levels in a dose-dependent manner
[5]
  HIF-1α, HIF-2α, VEGF, EPO, ET-1, and MMP-9 protein levels: down-regulates
R28 cells [6]; [7]
  PDGF-B mRNA level: significant dose-dependent attenuations
  VEGF mRNA level: significant dose-dependent attenuations
  iNOS mRNA level: significant dose-dependent attenuations
R28 cells [6]; R28, hypoxia, YC-1 25-100 μM, vs DMSO-treated hypoxic cells, normalized to β-actin
  GFAP mRNA level: significant dose-dependent attenuations
R28 cells [6]; R28, pre- vs post-YC-1 treatment
  HIF-1α message level: no differences

From patent US20140163082A1, “PYRAZOLYL COMPOUNDS FOR USE IN REVERSING REACTIVE GLIOSIS” (priority 2011, published 2014)
